GI50 and TGI data for 9 molecules are collected here from PubChem BioAssay (NCI).

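96-well plates; 48 h exposure; 5 concentrations. Endpoints by linear interpolation between flanking doses. Not reached: highest tested concentration assigned. At the GI50, growth is halved. Definition used: TGI = concentration required for complete inhibition of growth.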 Where only a bound is given, the exact number is not on record here.

Some test systems named below: SK-MEL-5 melanoma; SK-MEL-2 melanoma; IGROV1 ovarian; SF-268 CNS; SF-539 CNS; NCI/ADR-RES ovarian; LOX IMVI melanoma; KM12 colon; MDA-MB-435; MALME-3M melanoma.
Common to all, as to assay: growth of human tumour cells (NCI), 48 h

For the molecule `COc1ccc(/C=C\c2cc(OC)c(OC)c(OC)c2)cc1NC(=O)[C@@H](N)CO`, the GI50 with SK-MEL-5 melanoma was below 0.0112 µM; in the assay on SK-MEL-2 melanoma it was 0.0198 µM; with IGROV1 ovarian it was 0.0273 µM; in the assay with SF-268 CNS it was 0.0462 µM; with SF-539 CNS, 0.0145 µM; in the assay on NCI/ADR-RES ovarian, 0.0205 µM. Besides, the GI50 with LOX IMVI melanoma is 0.0376 µM; in the assay on KM12 colon, below 0.0129 µM. Moreover, the TGI with SK-MEL-5 melanoma was 0.0364 µM; in the assay on SK-MEL-2 melanoma, above 100 µM; in the assay on IGROV1 ovarian, above 92.6 µM; with SF-268 CNS, above 100 µM; in the assay with SF-539 CNS, 0.0649 µM; in the assay on NCI/ADR-RES ovarian, 0.245 µM. The TGI with LOX IMVI melanoma and in the assay on KM12 colon was above 100 µM each time.
For `N#Cc1c2ccccc2c2nnc3cc(C(F)(F)F)ccc3n12`, the GI50 in the assay on IGROV1 ovarian is 46.9 µM; in the assay with SF-268 CNS it was 19.2 µM; with MDA-MB-435, 31.4 µM; with MALME-3M melanoma, above 100 µM; with LOX IMVI melanoma, 21.7 µM; in the assay on KM12 colon it was above 100 µM. The TGI was above 100 µM in the assay on IGROV1 ovarian; above 100 µM in the assay on SF-268 CNS; above 100 µM in the assay with MDA-MB-435; above 100 µM with MALME-3M melanoma; 62.9 µM in the assay with LOX IMVI melanoma; above 100 µM in the assay on KM12 colon.
On to `COc1ccc(/C=C(\C#N)n2nnc3cc(Cl)ccc32)cc1`, for which the GI50 in the assay with SK-MEL-5 melanoma is 2.36 µM; in the assay on SK-MEL-2 melanoma, 0.483 µM; with IGROV1 ovarian it was 0.606 µM; in the assay on SF-268 CNS, 2 µM; with MDA-MB-435, 0.124 µM; in the assay with SF-539 CNS, 1.25 µM. The GI50 in the assay on MALME-3M melanoma was 1.22 µM; in the assay on NCI/ADR-RES ovarian, 0.299 µM; in the assay with LOX IMVI melanoma, 0.887 µM; in the assay with KM12 colon, 1.33 µM. Besides, the TGI in the assay on SK-MEL-5 melanoma was 10.6 µM; with SK-MEL-2 melanoma, above 47.6 µM; with IGROV1 ovarian, above 37.9 µM; with SF-268 CNS it was above 100 µM; in the assay with MDA-MB-435, 0.342 µM; in the assay on SF-539 CNS, 3.5 µM. The TGI is 11.3 µM in the assay with MALME-3M melanoma, 4.58 µM in the assay on NCI/ADR-RES ovarian, 9.4 µM with LOX IMVI melanoma and 37.1 µM in the assay with KM12 colon.
Turning to `C=C1C(=O)OC2C1C(OC(=O)/C(C)=C/C)CC(O)(CCl)C1C(OC(C)=O)C=C(C)C21O` (centres undefined), the TGI was 34.4 µM in the assay with SK-MEL-5 melanoma; 32.5 µM with SK-MEL-2 melanoma; 30 µM in the assay with IGROV1 ovarian; 32.4 µM in the assay with SF-268 CNS; above 51.2 µM in the assay on MDA-MB-435; 41 µM with SF-539 CNS. The TGI in the assay with MALME-3M melanoma stood at 14.9 µM; with NCI/ADR-RES ovarian, 61 µM; with LOX IMVI melanoma, 20.7 µM; in the assay with KM12 colon, 39.5 µM.
Turning to `COC(=O)C/C(C)=C/[C@@H](O)[C@H]1O[C@@H]2CC/C(Cl)=C/C/C=C(/C)[C@H](OC(C)=O)CC(=O)O[C@@H]1C2`, the GI50 was 0.875 µM in the assay with SK-MEL-5 melanoma; 0.581 µM in the assay with SK-MEL-2 melanoma; 1.68 µM in the assay with IGROV1 ovarian; 1.07 µM in the assay on SF-268 CNS; 1.32 µM in the assay with SF-539 CNS; 9.91 µM with NCI/ADR-RES ovarian. Further, the GI50 is 1.97 µM with LOX IMVI melanoma and 2.64 µM in the assay on KM12 colon. In addition, the TGI in the assay with SK-MEL-5 melanoma is 3.42 µM; with SK-MEL-2 melanoma it was 9.62 µM; in the assay on IGROV1 ovarian, 15.7 µM; in the assay on SF-268 CNS, 4.61 µM; with SF-539 CNS it was 7.95 µM; with NCI/ADR-RES ovarian, above 25 µM. The values for the TGI in the assay with LOX IMVI melanoma and with KM12 colon were 11.2 µM and 9.63 µM, respectively.
For the molecule `CN(C)CCCNC(=O)c1cc(NC(=O)c2cc(NC(=O)CCCN3c4ccccc4C=Cc4ccccc43)cn2C)cn1C`, the GI50 with IGROV1 ovarian was 3.36 µM; in the assay on SF-268 CNS, 5.06 µM; in the assay with SF-539 CNS, 5.57 µM; in the assay with NCI/ADR-RES ovarian it was 23.6 µM; with KM12 colon, 2.42 µM. The TGI is 8.8 µM with IGROV1 ovarian; above 100 µM in the assay with SF-268 CNS; 33.5 µM in the assay on SF-539 CNS; 59.9 µM in the assay on NCI/ADR-RES ovarian; 10.8 µM in the assay on KM12 colon.
`CCOC(=O)c1[nH]c2cccc3c2c1CC(Br)C3=O` (centres undefined): the TGI in the assay with SK-MEL-5 melanoma was determined as 33.1 µM; in the assay on IGROV1 ovarian it was 20.4 µM; with SF-268 CNS, 32.9 µM; in the assay on MDA-MB-435 it was 25.2 µM; with SF-539 CNS, 30.4 µM; with MALME-3M melanoma, 28.2 µM. In addition, the TGI with NCI/ADR-RES ovarian came to 30.3 µM; in the assay on LOX IMVI melanoma, 31.8 µM; with KM12 colon, 30.5 µM.
As to `Cc1c(C(=O)N/N=C/c2ccc(O)cc2)nnn1-c1ccnc2c(C(F)(F)F)cccc12`, the GI50 in the assay on SK-MEL-5 melanoma is above 100 µM; with SK-MEL-2 melanoma, above 100 µM; in the assay with IGROV1 ovarian it was above 100 µM; with SF-268 CNS, 64.4 µM; in the assay on MDA-MB-435, above 100 µM; in the assay on SF-539 CNS, 42 µM. The GI50 is above 100 µM in the assay on NCI/ADR-RES ovarian, 46.8 µM in the assay with LOX IMVI melanoma and above 100 µM in the assay on KM12 colon. Moreover, the TGI in the assay on SK-MEL-5 melanoma, with SK-MEL-2 melanoma, in the assay with IGROV1 ovarian, in the assay on SF-268 CNS, in the assay with MDA-MB-435 and in the assay on SF-539 CNS was above 100 µM each time. Besides, the TGI in the assay on NCI/ADR-RES ovarian, in the assay on LOX IMVI melanoma and in the assay on KM12 colon was above 100 µM throughout.
As to `CCOC(=O)c1sc2ncn(Cc3cccc(Cl)c3)c(=O)c2c1C`, the GI50 with SK-MEL-5 melanoma is 14.9 µM; in the assay with SK-MEL-2 melanoma, 15.1 µM; with IGROV1 ovarian, 8.89 µM; with SF-268 CNS, 15.1 µM; with MDA-MB-435, 13.9 µM; with SF-539 CNS, 19.3 µM. The results for the GI50 in the assay on NCI/ADR-RES ovarian, with LOX IMVI melanoma and in the assay with KM12 colon were 7.78 µM, 14.6 µM and 13.7 µM, respectively. Moreover, the TGI in the assay on SK-MEL-5 melanoma was found to be 28.1 µM; with SK-MEL-2 melanoma it was 29.1 µM; in the assay with IGROV1 ovarian it was 21.2 µM; with SF-268 CNS, 28.4 µM; with MDA-MB-435 it was 26.9 µM; with SF-539 CNS, 33.4 µM. Besides, the TGI with NCI/ADR-RES ovarian amounted to 20.7 µM; in the assay on LOX IMVI melanoma, 27.8 µM; in the assay on KM12 colon, 37.9 µM.
